# “Also recorded” adds a separate entry of the source.
# What was measured:
# [1] = biological target: N-methyl-D-aspartate (NMDA) receptors; assay: NMDA receptor affinity; assay type: binding
# [2] = test system: brain ischemia; assay: brain ischemia in mice; assay type: in vivo; conditions: for neuroprotection against mice brain ischemia: dose not given
# [3] = test system: NMDA (10 μM) induced functional excitotoxicity, hippocampal slices; assay: NMDA (10 μM) induced functional excitotoxicity in rat hippocampal slices; conditions: for neuroprotection against NMDA induced functional excitotoxicity: hippocampal slices
# [4] = biological target: T1, sigma-1 (Homo sapiens, UniProt Q99720); assay: sigma-1 agonistic activity
# T1 sequence (Q99720 whole entry): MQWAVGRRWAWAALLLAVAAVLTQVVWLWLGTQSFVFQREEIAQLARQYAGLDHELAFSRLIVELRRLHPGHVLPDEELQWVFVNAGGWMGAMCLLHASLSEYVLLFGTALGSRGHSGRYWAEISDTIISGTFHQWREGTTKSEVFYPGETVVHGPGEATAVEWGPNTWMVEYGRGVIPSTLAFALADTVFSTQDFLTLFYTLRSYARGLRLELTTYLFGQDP
# [5] = test system: hippocampal slices; assay: in vitro evaluation of the compounds' own functional excitotoxicity on hippocampal slices
# [6] = biological target: T1, sigma-1; assay: sigma-1 receptor affinity (binding)
# [7] = biological target: sigma-2 receptors (Homo sapiens, UniProt Q5BJF2); assay: sigma-2 receptor affinity (binding)
# Chain of sigma-2 receptors (Q5BJF2 whole entry): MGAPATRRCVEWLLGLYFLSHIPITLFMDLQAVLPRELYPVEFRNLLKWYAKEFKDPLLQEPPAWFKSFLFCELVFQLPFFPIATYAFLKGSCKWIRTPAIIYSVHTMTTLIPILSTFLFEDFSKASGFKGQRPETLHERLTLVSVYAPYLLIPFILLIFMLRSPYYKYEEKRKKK
# [8] = test system: sodium channels; assay: sodium channel affinity; assay type: binding
# [9] = biological target: T2, M2 muscarinic receptors (Homo sapiens, UniProt P08172); assay: M2 muscarinic receptor affinity; assay type: binding
# T2 sequence (P08172 1-466): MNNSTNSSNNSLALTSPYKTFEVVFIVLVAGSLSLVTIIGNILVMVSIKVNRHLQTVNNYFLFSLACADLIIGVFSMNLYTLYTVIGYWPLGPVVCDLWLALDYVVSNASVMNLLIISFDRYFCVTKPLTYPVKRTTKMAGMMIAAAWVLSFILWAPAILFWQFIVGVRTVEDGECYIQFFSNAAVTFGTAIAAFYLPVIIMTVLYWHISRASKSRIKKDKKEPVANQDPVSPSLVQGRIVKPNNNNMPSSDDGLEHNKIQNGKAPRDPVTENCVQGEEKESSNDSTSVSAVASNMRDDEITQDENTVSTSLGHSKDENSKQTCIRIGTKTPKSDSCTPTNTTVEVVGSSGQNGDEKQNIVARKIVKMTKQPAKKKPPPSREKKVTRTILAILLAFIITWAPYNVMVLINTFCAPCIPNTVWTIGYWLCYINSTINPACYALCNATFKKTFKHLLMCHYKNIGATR
# [10] = biological target: M3 muscarinic receptors (Homo sapiens, UniProt P20309); assay: M3 muscarinic receptor affinity; assay type: binding
# Chain of M3 muscarinic receptors (Homo sapiens, UniProt P20309) (P20309 whole entry): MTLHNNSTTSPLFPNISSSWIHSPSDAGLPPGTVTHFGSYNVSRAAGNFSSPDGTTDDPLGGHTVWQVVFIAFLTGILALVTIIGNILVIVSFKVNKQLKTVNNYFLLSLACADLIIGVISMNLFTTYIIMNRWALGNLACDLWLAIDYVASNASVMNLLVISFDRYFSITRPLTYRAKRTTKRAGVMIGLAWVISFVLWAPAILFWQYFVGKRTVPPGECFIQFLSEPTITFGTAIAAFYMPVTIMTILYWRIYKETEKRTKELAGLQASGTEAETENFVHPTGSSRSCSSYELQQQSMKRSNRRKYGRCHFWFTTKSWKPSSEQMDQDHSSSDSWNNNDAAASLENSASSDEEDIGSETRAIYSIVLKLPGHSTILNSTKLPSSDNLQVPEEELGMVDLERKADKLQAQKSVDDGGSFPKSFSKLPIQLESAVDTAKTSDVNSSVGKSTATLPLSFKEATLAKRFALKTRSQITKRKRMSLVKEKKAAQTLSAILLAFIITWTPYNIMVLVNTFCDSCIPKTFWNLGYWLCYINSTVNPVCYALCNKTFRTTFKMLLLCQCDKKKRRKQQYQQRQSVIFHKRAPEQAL
# [11] = biological target: T3, M2 muscarinic receptors (Cavia porcellus, UniProt H0VRN8); assay: functional M2 antagonism, guinea pig left atria
# T3 construct: from tissue; host or cells: guinea pig left atria
# T3 sequence (H0VRN8 1-466): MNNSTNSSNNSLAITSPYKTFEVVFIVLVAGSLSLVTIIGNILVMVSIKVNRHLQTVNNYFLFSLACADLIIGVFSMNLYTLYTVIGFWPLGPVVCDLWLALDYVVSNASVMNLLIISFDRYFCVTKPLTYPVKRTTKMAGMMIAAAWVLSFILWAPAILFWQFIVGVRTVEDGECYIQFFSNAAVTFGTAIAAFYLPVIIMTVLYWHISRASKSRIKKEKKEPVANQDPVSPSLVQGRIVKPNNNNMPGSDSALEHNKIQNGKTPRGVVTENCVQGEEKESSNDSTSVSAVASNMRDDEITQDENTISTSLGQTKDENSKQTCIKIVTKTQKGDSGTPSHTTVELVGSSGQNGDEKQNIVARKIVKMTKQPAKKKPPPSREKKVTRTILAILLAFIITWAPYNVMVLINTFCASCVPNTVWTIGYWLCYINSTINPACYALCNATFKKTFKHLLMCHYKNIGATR
# [12] = biological target: T4, M3 muscarinic receptors (Cavia porcellus, UniProt H0W1Z3); assay: functional M3 antagonism, guinea pig ileum
# T4 construct: from tissue; host or cells: guinea pig ileum
# T4 sequence (H0W1Z3 1-590): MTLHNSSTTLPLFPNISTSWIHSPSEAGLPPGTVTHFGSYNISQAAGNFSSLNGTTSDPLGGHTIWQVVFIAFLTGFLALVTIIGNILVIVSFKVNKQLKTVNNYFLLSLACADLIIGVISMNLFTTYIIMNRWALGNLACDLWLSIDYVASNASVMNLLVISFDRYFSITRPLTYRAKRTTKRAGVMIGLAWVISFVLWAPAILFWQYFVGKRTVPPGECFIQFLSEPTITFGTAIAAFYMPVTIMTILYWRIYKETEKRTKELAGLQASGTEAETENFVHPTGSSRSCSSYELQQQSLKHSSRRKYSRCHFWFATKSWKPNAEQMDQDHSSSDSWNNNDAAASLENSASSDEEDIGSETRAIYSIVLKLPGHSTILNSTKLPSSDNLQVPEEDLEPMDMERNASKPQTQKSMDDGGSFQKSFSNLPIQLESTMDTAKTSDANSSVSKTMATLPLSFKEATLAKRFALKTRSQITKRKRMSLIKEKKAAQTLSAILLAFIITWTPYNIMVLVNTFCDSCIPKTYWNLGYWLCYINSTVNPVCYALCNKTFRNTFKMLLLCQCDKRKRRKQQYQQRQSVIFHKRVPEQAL
# [13] = test system: mitochondrial toxicity of pentylenetetrazole (PTZ); assay: latency of lethality of pentylenetetrazole (PTZ) in mice; assay type: in vivo; conditions: PTZ 130 mg/kg ip
# [14] = test system: Aβ25-35 induced amnesia and neurotoxicity; assay: Aβ25-35 induced amnesia and neurotoxicity in mice (Y-maze, step-through); assay type: in vivo
# [15] = test system: MES convulsions; assay: Maximal Electrochoc Seizures (MES) in mice; assay type: in vivo; conditions: 10 to 30 mg/kg po
# [16] = test system: PTZ convulsions; assay: Pentylenetetrazole (PTZ) convulsions in mice; assay type: in vivo; conditions: 10 to 30 mg/kg po
# [17] = test system: M2 and M3 muscarinic receptors in the periphery; assay: antagonism of peripheral M2 and M3 muscarinic receptors in mice; assay type: in vivo; conditions: from 1 to 10 mg/kg ip
# [18] = test system: immobility; assay: forced swimming (Porsolt) test in mice; assay type: in vivo; conditions: from 5 mg/kg po
# [19] = memory perturbations in mice; conditions: 0.1 to 45 mg/kg, per os
compound,measurement,setting,value
"CN(C)CC1COC(c2ccccc2)(c2ccccc2)C1 (stereo not shown) [AE14, tetrahydro-N,N-dimethyl-5,5-diphenyl-3-furanomethanamine]",IC50,[1],> 10 µM
same,neuroprotection against mice brain ischemia,[2],inactive
same,neuroprotection against NMDA induced functional excitotoxicity,[3],no significant neuroprotection
same,sigma-1 agonistic activity,[4],high and selective sigma-1 agonistic activity
same,excitotoxic effects of the compound itself (functional excitotoxicity),[5],significant excitoneurotoxic effects
"CN(C)CC1CCOC1(c1ccccc1)c1ccccc1 (stereo not shown) [AE37, tetrahydro-N,N-dimethyl-2,2-diphenyl-3-furanomethanamine]",IC50,[1],8 µM
same,neuroprotection against mice brain ischemia,[2],inactive
same,neuroprotection against NMDA induced functional excitotoxicity,[3],no significant neuroprotection
same,sigma-1 agonistic activity,[4],sub-micromolar and selective sigma-1 agonism
same,excitotoxic effects of the compound itself (functional excitotoxicity),[5],significant excitoneurotoxic effects
"CNCC1CCOC1(c1ccccc1)c1ccccc1 (stereo not shown) [AE37Met, tetrahydro-N-methyl-2,2-diphenyl-3-furanomethanamine]",IC50,[6],0.67 µM
same,IC50,[7],> 10 µM
same,IC50,[1],1 µM
same,IC50,[8],5.7 µM
same,IC50,[9],2.77 µM
same,IC50,[10],4.35 µM
same,concentration from which significant functional antagonism (M2),[11],≥ 3.0 µM
same,concentration from which significant functional antagonism (M3),[12],≥ 3.0 µM
same,increase of latency of lethality of PTZ,[13]; AE37Met 3.10 mg/kg po (so in the source),3.10 fold
same,increase of latency of lethality of PTZ,[13]; AE37Met 30 mg/kg po,18 fold
same,antagonism of Aβ25-35 induced amnesia and neurotoxicity,"[14]; 0.3 to 3 mg/kg ip, mice",antagonized
same,antiamnesic action on co-administration with IAChEases,"[14]; co-administered with Rivastigmine or Donepezil, Y-maze, step-through, intracerebral soluble amyloid 25-35, mice",higher than the sum of the antiamnesic effects
same,protection against MES convulsions,[15],protected; also recorded: high protective effects
same,protection against PTZ convulsions,[16],protected; also recorded: high protective effects
same,protection against brain ischemia,[2]; 5 to 15 mg/kg ip,protected; also recorded: significant antagonism
same,antagonistic effects against NMDA induced functional excitotoxicity,"[3]; AE37Met 1 to 10 μM, rat hippocampal slices",first antagonistic effects
same,neuroprotection against NMDA induced functional excitotoxicity,[3],high dose (concentration)-dependant neuroprotection
same,antagonistic effects on M2 and M3 muscarinic receptors in the periphery,[17],antagonistic effects
same,anti-immobility activity in the Porsolt test,[18],high anti-immobility activity
same,memory perturbations,[19],no memory perturbations
same,excitotoxic effects of the compound itself (functional excitotoxicity),[5],no excitotoxic effects
